Measurements taken from patent US20190111055A1, “USE OF PHARMACEUTICAL COMPOSITION FOR THE TREATMENT OF SKIN ERYTHEMA IN POIKILODERMAS” (priority 2016, published 2019).

Experiments:
[1] = clinical studies for acute erythema or diseases such as rosacea; cited from earlier work
[2] = tested on: skin lesions of Poikiloderma of Civatte
Excerpt: FIG. 1 represents the delimited area of the patient's skin to be treated with a composition described in this document, containing an alpha-adrenergic agonist, namely brimonidine gel 0.33%, prior to applying the medicine.
FIG. 2 represents the area of the patient's skin to be treated with the composition mentioned above, immediately after applying the medicine.
Drawing 1 represents the area selected and marked with white pencil for applying a product containing the alpha-adrenergic agonist brimonidine at 0.33% on skin lesions of Poikiloderma of Civatte; this drawing represents the area prior to application. Drawing 2 represents the moment immediately after applying the composition, which was restricted to the small area marked on the skin of the patient.

Structure (SMILES): Brc1c(NC2=NCCN2)ccc2nccnc12 [brimonidine]
- adverse events (most common: erythema, redness, burning sensation, contact dermatitis) [1]: less than or equal to 1%
- color of the skin affected by Poikiloderma of Civatte ([2]; brimonidine at 0.33%, topical, marked skin area, 40 minutes after applying): effective improvement in the color of the skin
- redness of the Poikiloderma of Civatte erythema ([2]; topical application of the product): visibly improves the redness
